The values that follow come from patent publication US10392373B2, “Oxazole derivatives that inhibit Syk” (AB Science, priority 2015, dated 2019).

The target in this assay is T1, SYK kinase (Homo sapiens, UniProt P43405).
T1 construct: SYK kinase was purified as a full length protein in a baculovirus system near homogeneity; made in house
In words: In vitro Syk inhibition assay (Kinase TK HTRF, Cisbio). Format: biochemical. Particulars: full length SYK purified from a baculovirus system; ATP at least twice the Km; room temperature; average of triplicate; read-out: IC50: Concentration inhibiting 50% of protein kinase. The method, then: Protocol Inhibition Assays.
SYK kinase was purified as a full length protein in a baculovirus system near homogeneity. All kinase assays were performed with the Kinase TK (tyrosine kinase) HTRF (Homogeneous Time Resolved Fluorescence) assay developed by Cisbio international. These assays were carried out at room temperature in 96-wells half-area white plates in a final volume of 25 μl of kinase buffer (10 mM MgCl2; 2 mM MnCl2; 50 mM Sodium-HEPES pH 7.8; BRIJ-35 0.01%, 1 μM substrate) containing ATP at a concentration of at least twice the Km for each enzyme and an appropriate amount of recombinant enzyme to ensure a linear reaction rate. Reactions were initiated upon introduction of the enzyme and terminated with the addition of one reaction volume (25 μl) of HTRF detection buffer. Plates were incubated for one hour at room temperature and the time resolved Fluorescence resonance energy transfer signal was measured in a Pherastar FS microplate reader (BMG Labtech). All data are the average of triplicate results with a standard deviation <10%.
(In general: Time-resolved FRET reads energy transfer from a long-lived donor to a nearby acceptor.)

Consider `Cc1ccnc(Nc2cccc(-c3cnc(N4CCNC(=O)C4C)o3)c2)n1` (centres unmarked) [Compound 001, 3-Methyl-4-{5-[3-(4-methyl-pyrimidin-2-ylamino)-phenyl]-oxazol-2-yl}-piperazin-2-one], for which the IC50 is ≤ 100 nM.

As to `Cc1ccnc(Nc2cccc(-c3cnc(N4CCNC(=O)C4(C)C)o3)c2)n1` [Compound 002, 3,3-Dimethyl-4-{5-[3-(4-methyl-pyrimidin-2-ylamino)-phenyl]-oxazol-2-yl}-piperazin-2-one], the IC50 is ≤ 100 nM.

Take `Cc1ccnc(Nc2cccc(-c3cnc(N4CCNC(=O)C4C(C)C)o3)c2)n1` (centres unmarked) [Compound 003, 3-Isopropyl-4-{5-[3-(4-methyl-pyrimidin-2-ylamino)-phenyl]-oxazol-2-yl}-piperazin-2-one]: the IC50 was ≤ 100 nM.

For `CCc1ccnc(Nc2cccc(-c3cnc(N4CCNC(=O)C4C)o3)c2)n1` (centres unmarked) [Compound 004, 4-{5-[3-(4-Ethyl-pyrimidin-2-ylamino)-phenyl]-oxazol-2-yl}-3-methyl-piperazin-2-one], the IC50 was ≤ 100 nM.

Consider `Cc1ccnc(Nc2cc(CN3CCOCC3)cc(-c3cnc(N4CCNC(=O)C4(C)C)o3)c2)n1` [Compound 005, 3,3-Dimethyl-4-{5-[3-(4-methyl-pyrimidin-2-ylamino)-5-morpholin-4-ylmethyl-phenyl]-oxazol-2-yl}-piperazin-2-one], for which the IC50 was ≤ 100 nM.

Turning to `CCCc1cnc(Nc2cccc(-c3cnc(N4CCNC(=O)C4C)o3)c2)nc1` (centres unmarked) [Compound 006, 3-Methyl-4-{5-[3-(5-propyl-pyrimidin-2-ylamino)-phenyl]-oxazol-2-yl}-piperazin-2-one], the IC50 is 1000 to 10000 nM.

`Cc1ccnc(Nc2cccc(-c3cnc(N4CCNC(=O)[C@H]4C)o3)c2)n1` [Compound 007, (R)-3-Methyl-4-{5-[3-(4-methyl-pyrimidin-2-ylamino)-phenyl]-oxazol-2-yl}-piperazin-2-one]: the IC50 was ≤ 100 nM.

With `CC1C(=O)NCCN1c1ncc(-c2cc(CN3CCOCC3)cc(Nc3nccc(C#N)n3)c2)o1` (centres unmarked) [Compound 008, 2-{3-[2-(2-Methyl-3-oxo-piperazin-1-yl)-oxazol-5-yl]-5-(morpholin-4-ylmethyl)-phenylamino}-pyrimidine-4-carbonitrile], the IC50 is ≤ 100 nM.

For `CC1C(=O)NCCN1c1ncc(-c2cccc(Nc3nccc(C(F)(F)F)n3)c2)o1` (centres unmarked) [Compound 009, 3-Methyl-4-{5-[3-((4-trifluoromethyl)-pyrimidin-2-ylamino)-phenyl]-oxazol-2-yl}-piperazin-2-one], the IC50 is ≤ 100 nM.

Consider `CC1C(=O)NCCN1c1ncc(-c2cccc(Nc3nccc(-c4cccs4)n3)c2)o1` (centres unmarked) [Compound 010, 3-Methyl-4-{5-[3-(4-thiophen-2-yl-pyrimidin-2-ylamino)-phenyl]-oxazol-2-yl}-piperazin-2-one], for which the IC50 was ≤ 100 nM.

As for `CCC1C(=O)NCCN1c1ncc(-c2cccc(Nc3nccc(C(F)(F)F)n3)c2)o1` (centres unmarked) [Compound 011, 3-Ethyl-4-{5-[3-((4-trifluoromethyl)-pyrimidin-2-ylamino)-phenyl]-oxazol-2-yl}-piperazin-2-one], the IC50 is ≤ 100 nM.

For the molecule `CC(C)C1C(=O)NCCN1c1ncc(-c2cccc(Nc3nccc(C(F)(F)F)n3)c2)o1` (centres unmarked) [Compound 012, 3-Isopropyl-4-{5-[3-((4-trifluoromethyl)-pyrimidin-2-ylamino)-phenyl]-oxazol-2-yl}-piperazin-2-one], the IC50 was ≤ 100 nM.

For `COc1ccnc(Nc2cccc(-c3cnc(N4CCNC(=O)C4C)o3)c2)n1` (centres unmarked) [Compound 013, 4-{5-[3-(4-Methoxy-pyrimidin-2-ylamino)-phenyl]-oxazol-2-yl}-3-methyl-piperazin-2-one], the IC50 was ≤ 100 nM.

As to `Cc1ccnc(Nc2cc(CN3CCOCC3)cc(-c3cnc(N4CCNC(=O)C4C)o3)c2)n1` (centres unmarked) [Compound 014, 3-Methyl-4-{5-[3-(4-methyl-pyrimidin-2-ylamino)-5-morpholin-4-ylmethyl-phenyl]-oxazol-2-yl}-piperazin-2-one], the IC50 lay in the range of 100 to 1000 nM.

Regarding `CC1C(=O)NCCN1c1ncc(-c2cc(CN3CCOCC3)cc(Nc3nccc(C(F)(F)F)n3)c2)o1` (centres unmarked) [Compound 015, 3-Methyl-4-{5-[3-morpholin-4-ylmethyl-5-((4-trifluoromethyl)-pyrimidin-2-ylamino)-phenyl]-oxazol-2-yl}-piperazin-2-one], the IC50 was ≤ 100 nM.

Take `CCc1cnc(Nc2cccc(-c3cnc(N4CCNC(=O)C4C)o3)c2)nc1` (centres unmarked) [Compound 016, 4-{5-[3-(5-Ethyl-pyrimidin-2-ylamino)-phenyl]-oxazol-2-yl}-3-methyl-piperazin-2-one]: the IC50 was 1000 to 10000 nM.

As for `CC1C(=O)NCCN1c1ncc(-c2cccc(Nc3nccc(C#N)n3)c2)o1` (centres unmarked) [Compound 017, 2-{3-[2-(2-Methyl-3-oxo-piperazin-1-yl)-oxazol-5-yl]-phenylamino}-pyrimidine-4-carbonitrile], the IC50 is ≤ 100 nM.

`CC1(C)C(=O)NCCN1c1ncc(-c2cccc(Nc3nccc(C(F)(F)F)n3)c2)o1` [Compound 018, 3,3-Dimethyl-4-{5-[3-((4-trifluoromethyl)-pyrimidin-2-ylamino)-phenyl]-oxazol-2-yl}-piperazin-2-one]: the IC50 is ≤ 100 nM.

In the case of `Cc1ccnc(Nc2cccc(-c3cnc(N4CCNC(=O)[C@@H]4C)o3)c2)n1` [Compound 019, (S)-3-Methyl-4-{5-[3-(4-methyl-pyrimidin-2-ylamino)-phenyl]-oxazol-2-yl}-piperazin-2-one], the IC50 is ≤ 100 nM.

For the molecule `CCC1C(=O)NCCN1c1ncc(-c2cccc(Nc3nccc(C)n3)c2)o1` (centres unmarked) [Compound 020, 3-Ethyl-4-{5-[3-(4-methyl-pyrimidin-2-ylamino)-phenyl]-oxazol-2-yl}-piperazin-2-one], the IC50 was ≤ 100 nM.

For `CC(C)c1ccnc(Nc2cccc(-c3cnc(N4CCNC(=O)C4C)o3)c2)n1` (centres unmarked) [Compound 021, 4-{5-[3-(4-Isopropyl-pyrimidin-2-ylamino)-phenyl]-oxazol-2-yl}-3-methyl-piperazin-2-one], the IC50 is ≤ 100 nM.

Take `Cc1cnc(Nc2cccc(-c3cnc(N4CCNC(=O)C4(C)C)o3)c2)nc1C` [Compound 022, 4-{5-[3-(4,5-Dimethyl-pyrimidin-2-ylamino)-phenyl]-oxazol-2-yl}-3,3-dimethyl-piperazin-2-one]: the IC50 was in the range of 1000 to 10000 nM.

Consider `CC(C)c1ccnc(Nc2cccc(-c3cnc(N4CCNC(=O)C4(C)C)o3)c2)n1` [Compound 023, 4-{5-[3-(4-Isopropyl-pyrimidin-2-ylamino)-phenyl]-oxazol-2-yl}-3,3-dimethyl-piperazin-2-one], for which the IC50 is ≤ 100 nM.

With `Cc1ccnc(Nc2cccc(-c3cnc(N4CCNC(=O)C4CCO)o3)c2)n1` (centres unmarked) [Compound 024, 3-(2-Hydroxy-ethyl)-4-{5-[3-(4-methyl-pyrimidin-2-ylamino)-phenyl]-oxazol-2-yl}-piperazin-2-one], the IC50 was 100 to 1000 nM.

As for `CCC1C(=O)NCCN1c1ncc(-c2cccc(Nc3nccc(C(C)C)n3)c2)o1` (centres unmarked) [Compound 025, 3-Ethyl-4-{5-[3-(4-isopropyl-pyrimidin-2-ylamino)-phenyl]-oxazol-2-yl}-piperazin-2-one], the IC50 was ≤ 100 nM.

As for `COc1ccnc(Nc2cccc(-c3cnc(N4CCNC(=O)C4(C)C)o3)c2)n1` [Compound 026, 4-{5-[3-(4-Methoxy-pyrimidin-2-ylamino)-phenyl]-oxazol-2-yl}-3,3-dimethyl-piperazin-2-one], the IC50 is ≤ 100 nM.
